The record followed here is patent US8791107B2, “N-substituted oxazinopteridines and oxazinopteridinones” (Takeda Pharmaceutical Company Limited, priority 2011, dated 2014).

Structures are written as SMILES. Where only a bound is given, the exact number is not on record here.

For the assay, the target named is T1, PI3Kδ (Homo sapiens, UniProt O00329).
T1 construct: The protein is full length and co-expressed with untagged PIK3R1; GST; purchased Invitrogen PV5274
T1 sequence (O00329 whole entry): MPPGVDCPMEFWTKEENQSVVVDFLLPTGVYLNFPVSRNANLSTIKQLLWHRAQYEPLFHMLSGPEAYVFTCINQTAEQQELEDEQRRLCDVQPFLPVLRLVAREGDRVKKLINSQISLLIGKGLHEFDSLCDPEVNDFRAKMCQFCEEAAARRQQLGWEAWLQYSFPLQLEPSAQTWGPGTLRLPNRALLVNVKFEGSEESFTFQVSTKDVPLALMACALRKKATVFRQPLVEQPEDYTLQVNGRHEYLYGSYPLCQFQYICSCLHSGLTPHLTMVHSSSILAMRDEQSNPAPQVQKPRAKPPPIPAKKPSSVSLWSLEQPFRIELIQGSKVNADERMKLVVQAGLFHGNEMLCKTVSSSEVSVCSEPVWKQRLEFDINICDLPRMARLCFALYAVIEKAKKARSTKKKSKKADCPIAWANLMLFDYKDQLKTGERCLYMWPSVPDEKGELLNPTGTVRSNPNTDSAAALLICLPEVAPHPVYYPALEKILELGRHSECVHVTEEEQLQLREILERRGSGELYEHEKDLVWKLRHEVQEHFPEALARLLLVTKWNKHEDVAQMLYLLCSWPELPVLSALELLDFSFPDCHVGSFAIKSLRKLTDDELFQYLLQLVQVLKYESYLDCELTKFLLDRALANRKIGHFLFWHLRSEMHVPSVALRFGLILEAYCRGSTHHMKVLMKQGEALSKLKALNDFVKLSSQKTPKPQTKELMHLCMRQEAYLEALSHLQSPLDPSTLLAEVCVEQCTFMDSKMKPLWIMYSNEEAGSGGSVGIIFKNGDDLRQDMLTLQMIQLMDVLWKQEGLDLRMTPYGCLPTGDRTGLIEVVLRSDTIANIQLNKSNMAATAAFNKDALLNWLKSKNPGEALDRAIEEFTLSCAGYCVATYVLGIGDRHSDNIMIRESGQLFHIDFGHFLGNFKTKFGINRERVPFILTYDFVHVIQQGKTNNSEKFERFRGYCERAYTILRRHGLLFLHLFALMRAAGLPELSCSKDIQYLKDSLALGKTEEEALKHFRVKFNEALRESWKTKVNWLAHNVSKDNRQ
T1 sequence (P27986 whole entry partner): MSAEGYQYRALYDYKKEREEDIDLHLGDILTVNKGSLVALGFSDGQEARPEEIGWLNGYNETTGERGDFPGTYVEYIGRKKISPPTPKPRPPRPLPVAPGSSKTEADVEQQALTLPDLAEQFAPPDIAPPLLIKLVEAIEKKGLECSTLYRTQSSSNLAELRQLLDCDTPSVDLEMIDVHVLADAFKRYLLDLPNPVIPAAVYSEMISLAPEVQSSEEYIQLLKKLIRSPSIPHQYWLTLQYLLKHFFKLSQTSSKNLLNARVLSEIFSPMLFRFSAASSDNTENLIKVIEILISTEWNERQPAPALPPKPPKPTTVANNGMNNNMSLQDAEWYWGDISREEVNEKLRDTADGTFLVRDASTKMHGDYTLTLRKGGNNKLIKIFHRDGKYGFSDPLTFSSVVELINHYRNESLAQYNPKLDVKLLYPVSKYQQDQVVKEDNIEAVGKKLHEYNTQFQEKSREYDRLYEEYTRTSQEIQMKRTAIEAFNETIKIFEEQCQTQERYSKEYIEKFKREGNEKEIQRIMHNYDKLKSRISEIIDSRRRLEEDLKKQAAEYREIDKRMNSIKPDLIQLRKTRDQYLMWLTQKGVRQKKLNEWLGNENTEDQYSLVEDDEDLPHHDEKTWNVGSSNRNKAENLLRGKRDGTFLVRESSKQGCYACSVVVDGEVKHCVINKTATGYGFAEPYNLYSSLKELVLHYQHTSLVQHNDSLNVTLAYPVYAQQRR
In words: PI3Kδ inhibition, modified PIK3CD Adapta TR-FRET assay. It is filed as biochemical. To be noted: recombinant GST-tagged full length PIK3CD co-expressed with PIK3R1 (p85α); 2 μM ATP, 50 μM PIP2; read-out: PI3Kδ Inhibition (pIC50) (converted). Summed up: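 Inhibition was derived from % conversion against positive and negative controls, with ADP read by Adapta Eu-antibody/tracer TR-FRET. Room-temperature reactions used GST-PIK3CD/p85α in HEPES pH 7.5 buffer (MgCl2, EGTA, NaCl, CHAPS, fresh DTT), 1% DMSO final and 12 concentrations. They were initiated by adding 2 μM ATP/50 μM PIP2 solution.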
Take `CNC(=O)Nc1ccc(-c2ncc3c(n2)N2CCOC[C@@H]2C(=O)N3C2CCOCC2)cc1` [Example 159, (R)-1-methyl-3-(4-(6-oxo-5-(tetrahydro-2H-pyran-4-yl)-5,6,6a,7,9,10-hexahydro-[1,4]oxazino[3,4-h]pteridin-2-yl)phenyl)urea]: the IC50 was 0.00251 µM.
The result for `c1cnc(CN2CC3COCCN3c3nc(-c4cccc5[nH]ccc45)ncc32)nc1` (stereo not drawn) [Example 164, 2-(1H-indol-4-yl)-5-(pyrimidin-2-ylmethyl)-5,6,6a,7,9,10-hexahydro-[1,4]oxazino[3,4-h]pteridine] reads 0.0794 µM; that for `COC(=O)c1ccc(C)cc1CN1C[C@@H]2COCCN2c2nc(-c3cccc4[nH]ccc34)ncc21` [Example 165, (R)-methyl 2-((2-(1H-indol-4-yl)-6a,7,9,10-tetrahydro-[1,4]oxazino[3,4-h]pteridin-5(6H)-yl)methyl)-4-methylbenzoate], 0.794 µM; that for `Cc1ccc(CO)c(CN2C[C@@H]3COCCN3c3nc(-c4cccc5[nH]ccc45)ncc32)c1` [Example 166, (R)-(2-((2-(1H-indol-4-yl)-6a,7,9,10-tetrahydro-[1,4]oxazino[3,4-h]pteridin-5(6H)-yl)methyl)-4-methylphenyl)methanol], 0.0631 µM.
Then `CCc1nnc(CN2C[C@@H]3COCCN3c3nc(-c4cncc5[nH]ccc45)ncc32)o1` [Example 167, (R)-5-((5-ethyl-1,3,4-oxadiazol-2-yl)methyl)-2-(1H-pyrrolo[2,3-c]pyridin-4-yl)-5,6,6a,7,9,10-hexahydro-[1,4]oxazino[3,4-h]pteridine], with 1 µM.
Then `CCc1nnc(CN2C[C@@H]3COCCN3c3nc(-c4ccc(O)nc4)ncc32)o1` [Example 168, (R)-5-(5-((5-ethyl-1,3,4-oxadiazol-2-yl)methyl)-5,6,6a,7,9,10-hexahydro-[1,4]oxazino[3,4-h]pteridin-2-yl)pyridin-2-ol], with above 10 µM.
Regarding `CC(C)(O)CCN1C[C@@H]2COCCN2c2nc(-c3cccc4[nH]ccc34)ncc21` [Example 169, (R)-4-(2-(1H-indol-4-yl)-6a,7,9,10-tetrahydro-[1,4]oxazino[3,4-h]pteridin-5(6H)-yl)-2-methylbutan-2-ol], the IC50 is 0.00794 µM.
The result for `CC(C)(O)CCN1C[C@@H]2COCCN2c2nc(-c3cncc4[nH]ccc34)ncc21` [Example 170, (R)-4-(2-(1H-pyrrolo[2,3-c]pyridin-4-yl)-6a,7,9,10-tetrahydro-[1,4]oxazino[3,4-h]pteridin-5(6H)-yl)-2-methylbutan-2-ol] reads 0.00631 µM; that for `CC(C)(O)CCN1C[C@@H]2COCCN2c2nc(-c3cccc(CO)c3)ncc21` [Example 171, (R)-4-(2-(3-(hydroxymethyl)phenyl)-6a,7,9,10-tetrahydro-[1,4]oxazino[3,4-h]pteridin-5(6H)-yl)-2-methylbutan-2-ol], 0.00316 µM.
Then `CCc1nnc(CN2C[C@@H]3COCCN3c3nc(-c4cccc(CO)c4)ncc32)o1` [Example 172, (R)-(3-(5-((5-ethyl-1,3,4-oxadiazol-2-yl)methyl)-5,6,6a,7,9,10-hexahydro-[1,4]oxazino[3,4-h]pteridin-2-yl)phenyl)methanol], with 0.00501 µM; and `OCCN1C[C@@H]2COCCN2c2nc(-c3cccc4[nH]ccc34)ncc21` [Example 173, (R)-2-(2-(1H-indol-4-yl)-6a,7,9,10-tetrahydro-[1,4]oxazino[3,4-h]pteridin-5(6H)-yl)ethanol], with 0.158 µM; and `O=C(CN1C[C@@H]2COCCN2c2nc(-c3cncc4[nH]ccc34)ncc21)NCC1CCOCC1` [Example 174, (R)-2-(2-(1H-pyrrolo[2,3-c]pyridin-4-yl)-6a,7,9,10-tetrahydro-[1,4]oxazino[3,4-h]pteridin-5(6H)-yl)-N-((tetrahydro-2H-pyran-4-yl)methyl)acetamide], with 0.00794 µM.
Then `CC(C)Cc1nnc(C(C)N2C[C@@H]3COCCN3c3nc(-c4cccc5[nH]ccc45)ncc32)o1` (stereo partly drawn) [Example 175, (6aR)-2-(1H-indol-4-yl)-5-(1-(5-isobutyl-1,3,4-oxadiazol-2-yl)ethyl)-5,6,6a,7,9,10-hexahydro-[1,4]oxazino[3,4-h]pteridine], with 0.00158 µM; and `CC(C)Cc1nnc(C(C)N2C[C@@H]3COCCN3c3nc(-c4cccc(CO)c4)ncc32)o1` (stereo partly drawn) [Example 176], with 0.00158 µM; and `CCc1nnc(C(C)N2C[C@@H]3COCCN3c3nc(-c4cccc(CO)c4)ncc32)o1` (stereo partly drawn) [Example 177, (3-((6aR)-5-(1-(5-ethyl-1,3,4-oxadiazol-2-yl)ethyl)-5,6,6a,7,9,10-hexahydro-[1,4]oxazino[3,4-h]pteridin-2-yl)phenyl)methanol], with 0.002 µM.
`CCc1nnc(C(C)N2C[C@@H]3COCCN3c3nc(-c4cccc5[nH]ccc45)ncc32)o1` (stereo partly drawn) [Example 178, (6aR)-5-(1-(5-ethyl-1,3,4-oxadiazol-2-yl)ethyl)-2-(1H-indol-4-yl)-5,6,6a,7,9,10-hexahydro-[1,4]oxazino[3,4-h]pteridine]: the IC50 is 0.00158 µM.
The result for `CCc1nnc(CN2C[C@@H]3COCCN3c3nc(-c4cc(CO)ccc4F)ncc32)o1` [Example 179, (R)-(3-(5-((5-ethyl-1,3,4-oxadiazol-2-yl)methyl)-5,6,6a,7,9,10-hexahydro-[1,4]oxazino[3,4-h]pteridin-2-yl)-4-fluorophenyl)methanol] reads 0.0501 µM; that for `CCc1nnc(CN2C[C@@H]3COCCN3c3nc(-n4ccc5cnccc54)ncc32)o1` [Example 180, (R)-5-((5-ethyl-1,3,4-oxadiazol-2-yl)methyl)-2-(1H-pyrrolo[3,2-c]pyridin-1-yl)-5,6,6a,7,9,10-hexahydro-[1,4]oxazino[3,4-h]pteridine], 0.398 µM; that for `c1ccc(N2CC3COCCN3c3nc(-c4cccc5[nH]ccc45)ncc32)cc1` (stereo not drawn) [Example 181, 2-(1H-indol-4-yl)-5-phenyl-5,6,6a,7,9,10-hexahydro-[1,4]oxazino[3,4-h]pteridine], 0.0794 µM.
The result for `Cn1cc(CN2C[C@@H]3COCCN3c3nc(-c4cccc5[nH]ccc45)ncc32)cn1` [Example 182, (R)-2-(1H-indol-4-yl)-5-((1-methyl-1H-pyrazol-4-yl)methyl)-5,6,6a,7,9,10-hexahydro-[1,4]oxazino[3,4-h]pteridine] reads 0.0158 µM; that for `CCc1cccc(N2C[C@@H]3COCCN3c3nc(-c4cccc5[nH]ccc45)ncc32)c1` [Example 183, (R)-5-(3-ethylphenyl)-2-(1H-indol-4-yl)-5,6,6a,7,9,10-hexahydro-[1,4]oxazino[3,4-h]pteridine], 0.398 µM; that for `CCc1ccccc1N1C[C@@H]2COCCN2c2nc(-c3cccc4[nH]ccc34)ncc21` [Example 184, (R)-5-(2-ethyl-phenyl)-2-(1H-indol-4-yl)-5,6,6a,7,9,10-hexahydro-[1,4]oxazino[3,4-h]pteridine], 0.398 µM.
Consider `c1cc(-c2ncc3c(n2)N2CCOC[C@H]2CN3Cc2cnco2)c2cc[nH]c2c1` [Example 185, (R)-2-(1H-indol-4-yl)-5-(oxazol-5-ylmethyl)-5,6,6a,7,9,10-hexahydro-[1,4]oxazino[3,4-h]pteridine], for which the IC50 is 0.01 µM.
Take `N#Cc1ccccc1N1C[C@@H]2COCCN2c2nc(-c3cccc4[nH]ccc34)ncc21` [Example 186, (R)-2-(2-(1H-indol-4-yl)-6a,7,9,10-tetrahydro-[1,4]oxazino[3,4-h]pteridin-5(6H)-yl)benzonitrile]: the IC50 was 0.0501 µM.
